Values after ≈ are worked out from the molar mass of the structure shown. Like-named read-outs stand apart in the source and are kept apart here.
How the values were obtained:
[1] = tested on: C. albicans ATCC MYA-1237(R) (strain C); type: cell-based, Candida albicans; details: strain C = C. albicans ATCC MYA-1237(R); MIC-0; 48 h; listed as printed beside letter D
[2] = tested on: C. auris AR Bank # 0390 (strain L); assay: MIC determination (broth microdilution); type: cell-based, Candida auris; details: strain L = C. auris AR Bank # 0390; MIC-0; 48 h (CAS read at 24 h); Table 1 row printed without letter, below L; also in Table 2
[3] = tested on: C. glabrata ATCC 2001 (strain H) biofilm; assay: Prevention of biofilm formation (XTT); type: cell-based, Candida glabrata; details: treated at 0 h
[4] = tested on: C. auris AR Bank # 0383 (strain III); assay: MIC determination (broth microdilution); type: cell-based, Candida auris; details: strain III = C. auris AR Bank # 0383; MIC-0; 48 h (CAS read at 24 h)
[5] = tested on: C. auris AR Bank # 0381 (strain I); assay: MIC determination (broth microdilution); type: cell-based, Candida auris; details: strain I = C. auris AR Bank # 0381; MIC-0; 48 h (CAS read at 24 h)
[6] = tested on: C. auris AR Bank # 0384 (strain K) biofilm; type: cell-based, Candida auris; details: treated at 0 h, XTT
[7] = tested on: C. albicans ATCC 10231(R) (strain B); type: cell-based, Candida albicans
[8] = tested on: C. albicans ATCC 90819(R) (strain G); type: cell-based, Candida albicans; details: strain G = C. albicans ATCC 90819(R); MIC-0; 48 h; listed as printed without letter, below G
[9] = tested on: A. terreus ATCC MYA-3633 (strain R); type: cell-based, Aspergillus terreus; details: strain R = A. terreus ATCC MYA-3633; MIC-0; 72 h at 35° C.
[10] = tested on: C. auris AR Bank # 0390 (strain L) biofilm; type: cell-based, Candida auris; details: treated at 0 h, XTT
[11] = tested on: C. neoformans ATCC MYA-85 (strain M); assay: MIC determination (broth microdilution); type: cell-based, Cryptococcus neoformans; details: strain M = C. neoformans ATCC MYA-85; MIC-0; 72 h at 35° C.
[12] = tested on: C. neoformans CN1 (strain N); assay: MIC determination (broth microdilution); type: cell-based, Cryptococcus neoformans; details: MIC-0, 72 h at 35° C.
[13] = tested on: C. parapsilosis ATCC 22019 (strain J); assay: MIC determination (broth microdilution); type: cell-based; details: strain J = C. parapsilosis ATCC 22019; MIC-0; 48 h; listed as printed beside letter K
[14] = tested on: C. auris AR Bank # 0388 (strain VII); assay: MIC determination (broth microdilution); type: cell-based, Candida auris; details: strain VII = C. auris AR Bank # 0388; MIC-0; 48 h (CAS read at 24 h)
[15] = tested on: C. glabrata ATCC 2001 (strain H) pre-formed biofilm; assay: Disruption of pre-formed biofilm (XTT); type: cell-based, Candida glabrata; details: for Pre-formed biofilm SMIC90: biofilm treated at 24 h, XTT
[16] = tested on: C. auris AR Bank # 0386 (strain V); assay: MIC determination (broth microdilution); type: cell-based, Candida auris; details: strain V = C. auris AR Bank # 0386; MIC-0; 48 h (CAS read at 24 h)
[17] = tested on: C. neoformans CN3 (strain P); assay: MIC determination (broth microdilution); type: cell-based, Cryptococcus neoformans; details: MIC-0, 72 h at 35° C.
[18] = tested on: F. graminearum 053 (strain T); type: cell-based, Fusarium graminearum; details: strain T = F. graminearum 053; MIC-0; room temperature, 5 days
[19] = tested on: C. albicans ATCC 10231 (strain B) biofilm; assay: Prevention of biofilm formation (XTT); type: cell-based, Candida albicans; details: treated at 0 h, 90% decrease in metabolic activity (XTT)
[20] = tested on: C. auris AR Bank # 0382 (strain II); assay: MIC determination (broth microdilution); type: cell-based, Candida auris; details: strain II = C. auris AR Bank # 0382; MIC-0; 48 h (CAS read at 24 h)
[21] = tested on: C. albicans ATCC MYA-2876(S) (strain E); assay: MIC determination (broth microdilution); type: cell-based, Candida albicans; details: strain E = C. albicans ATCC MYA-2876(S); MIC-0; 48 h; listed as printed beside letter F
[22] = tested on: C. glabrata ATCC 2001 (strain H); details: subcultures exposed to ½ MIC
[23] = strain B = C. albicans ATCC 10231(R), MIC-0, 48 h, listed as split over r8 and r9 (r9 printed beside letter C)

Row | Compound | MIC [1] [µg/mL] | MIC (in parentheses) [1] [µM] | MIC [2] [µg/mL] | MIC (in parentheses) [2] [µM] | Biofilm prevention SMIC90 [3] [µg/mL] | Biofilm prevention SMIC90 [6] [µg/mL] | MIC [8] [µg/mL] | MIC (in parentheses) [8] [µM] | MIC [9] [µg/mL] | MIC (in parentheses) [9] [µM] | Biofilm prevention SMIC90 [10] [µg/mL] | MIC [11] [µg/mL] | MIC (in parentheses) [11] [µM] | MIC [12] [µg/mL] | MIC (in parentheses) [12] [µM] | MIC [13] [µg/mL] | MIC (in parentheses) [13] [µM] | Pre-formed biofilm SMIC90 [15] [µg/mL] | MIC [17] [µg/mL] | MIC (in parentheses) [17] [µM] | also measured
1 | C[C@@H]1[C@H](O)[C@@H](C)/C=C/C=C/C=C/C=C/C=C/C=C/C=C/[C@H](O[C@@H]2O[C@H](C)[C@@H](O)[C@H](N)[C@@H]2O)C[C@@H]2O[C@](O)(C[C@@H](O)C[C@@H](O)[C@H](O)CC[C@@H](O)C[C@@H](O)CC(=O)O[C@H]1C)C[C@H](O)[C@H]2C(=O)O [AmB, amphotericin B, reference compound] | 3.9 (≈ 4.22 µM) | 4.2 (≈ 3.88 µg/mL) | 1.95 (≈ 2.11 µM) | 2.1 (≈ 1.94 µg/mL) | 0.98 | 1.95 | 0.98 (≈ 1.06 µM) | 1.1 (≈ 1.02 µg/mL) | 7.8 (≈ 8.44 µM) | 8.4 (≈ 7.76 µg/mL) | 1.95 | > 31.3 | > 33.9 | 0.98 (≈ 1.06 µM) | 1.1 (≈ 1.02 µg/mL) | 3.9 (≈ 4.22 µM) | 4.2 (≈ 3.88 µg/mL) | 7.8 | 0.98 (≈ 1.06 µM) | 1.1 (≈ 1.02 µg/mL) | MIC [4]: 1.95 µg/mL (≈ 2.11 µM); MIC (in parentheses) [4]: 2.1 µM (≈ 1.94 µg/mL); MIC [5]: 1.95 µg/mL (≈ 2.11 µM); MIC (in parentheses) [5]: 2.1 µM (≈ 1.94 µg/mL); MIC [7, 23]: 1.95 µg/mL (≈ 2.11 µM); MIC (in parentheses) [7, 23]: 2.1 µM (≈ 1.94 µg/mL); MIC [14]: 1.95 µg/mL (≈ 2.11 µM); MIC (in parentheses) [14]: 2.1 µM (≈ 1.94 µg/mL); SMIC90 of pre-formed biofilm relative to MIC with planktonic cells [15]: 2 fold; MIC [16]: 1.95 µg/mL (≈ 2.11 µM); MIC (in parentheses) [16]: 2.1 µM (≈ 1.94 µg/mL); MIC [18]: 7.8 µg/mL (≈ 8.44 µM); MIC (in parentheses) [18]: 8.4 µM (≈ 7.76 µg/mL); Biofilm prevention SMIC90 [19]: 0.98 µg/mL; MIC [20]: 0.98 µg/mL (≈ 1.06 µM); MIC (in parentheses) [20]: 1.1 µM (≈ 1.02 µg/mL); MIC [21]: 3.9 µg/mL (≈ 4.22 µM); MIC (in parentheses) [21]: 4.2 µM (≈ 3.88 µg/mL)
2 | CC(=O)OC[C@H]1O[C@@H]([S-])[C@H](OC(C)=O)[C@@H](OC(C)=O)[C@@H]1OC(C)=O.CCP(CC)CC.[Au+] [Auranofin, auranofin, reference compound] | > 31.3 | > 46.1 | > 31.3 | > 46.1 | 31.3 | >31.3 | > 31.3 | > 46.1 | 7.8 | 11.5 | >31.3 | ≤ 0.06 | ≤ 0.1 | 3.9 | 5.7 | > 31.3 | > 46.1 | >31.3 | 3.9 | 5.7 | MIC [7, 23]: > 31.3 µg/mL; MIC (in parentheses) [7, 23]: > 46.1 µM; Pre-formed biofilm SMIC90 ([15]; listed as auranofin): inactive; MIC [18]: > 31.3 µg/mL; MIC (in parentheses) [18]: > 46.1 µM; Biofilm prevention SMIC90 [19]: 7.8 µg/mL; MIC [21]: > 31.3 µg/mL; MIC (in parentheses) [21]: > 46.1 µM
3 | bis-[1,2-bis[(2R,5R)-2,5-dimethylfphospholano]benzene]gold(1) [Compound 6] | 0.98 | 1.2 | 1.95 | 2.3 | 1.95 | 3.9 | 0.49 | 0.6 | 3.9 | 4.6 | 3.9 | 0.25 | 0.3 | 0.49 | 0.6 | 0.49 | 0.6 | 3.9 | 0.49 | 0.6 | MIC [4]: 3.9 µg/mL; MIC (in parentheses) [4]: 4.6 µM; MIC [5]: 0.98 µg/mL; MIC (in parentheses) [5]: 1.2 µM; MIC [7]: 0.98 (1.2) μg/mL; MIC (in parentheses) [7]: 0.98 (1.2) μM; MIC [14]: 1.95 µg/mL; MIC (in parentheses) [14]: 2.3 µM; SMIC90 of pre-formed biofilm relative to MIC with planktonic cells [15]: 4 fold; MIC [16]: 3.9 µg/mL; MIC (in parentheses) [16]: 4.6 µM; MIC [18]: 3.9 µg/mL; MIC (in parentheses) [18]: 4.6 µM; changes in MIC values over fifteen serial passages [22]: no significant changes in MIC values; Biofilm prevention SMIC90 [19]: 0.98 µg/mL; MIC [20]: 0.98 µg/mL; MIC (in parentheses) [20]: 1.2 µM; MIC [21]: 0.49 µg/mL; MIC (in parentheses) [21]: 0.6 µM

Source: patent US11564394B2, “Distorted gold (I)-phosphine complexes and methods for use as antifungal agents” (University of Kentucky Research Foundation, priority 2019, dated 2023)
